Results published in patent US20240408086A1, “USE OF LUVADAXISTAT FOR THE TREATMENT OF COGNITIVE IMPAIRMENT” (TAKEDA PHARMACEUTICAL COMPANY LIMITED, priority 2021, published 2024).

Test system: rat hippocampus
Assay: D-serine on short-term potentiation and long-term depression in rat hippocampal slices
Design: species or system Sprague Dawley rats
Settings: 1 mM D-serine vs controls
Method: To obtain rat hippocampal slices, 4-week-old Sprague Dawley rats (provided by Elevage Janvier, Le Genest-Saint-Isle, France) were euthanized by fast decapitation without anesthesia. The brain was quickly removed and soaked in ice-cold oxygenated buffer: 2 mM KCl, 1.2 mM NaH2PO4, 7 mM MgCl2, 0.5 mM CaCl2), 26 mM NaHCO3, 11 mM glucose, and 250 mM sucrose. Hippocampal slices were prepared at 400 μm thickness with a McILWAIN tissue chopper. […] Slices were continuously perfused with oxygenated aCSF during experiments. The animals were housed and used in accordance with French and European legislation.
Electrophysiological recordings were obtained from a single hippocampal slice placed on the chamber and perfused with aCSF at a constant rate. Extracellular field excitatory postsynaptic potentials (fEPSPs) were recorded in the CA1 stratum radiatum using a glass micropipette filled with aCSF. fEPSPs were evoked by electrical stimulation of Schaffer collaterals/commissural pathway at 0.1 Hz with a glass stimulating electrode placed in the stratum radiatum.
Acute high doses (1 mM) of D-serine induced hippocampal synaptic plasticity (short-term potentiation and long-term depression) compared with controls in the rat hippocampus (FIGS. 1A-1C). Data in FIGS. 1A and 1B were normalized to the 10-minute control period.

N[C@H](CO)C(=O)O [D-serine]
Depression of EPSP amplitudes (long-term depression) (p=0.0374, unpaired t-test): significantly decreased the depression of EPSP amplitudes
Potentiation of excitatory postsynaptic potential (EPSP) amplitudes (short-term potentiation) (p=0.0603, unpaired t-test): increased the potentiation of excitatory postsynaptic potential (EPSP) amplitudes, although this change was not statistically significant
